Assay results published in patent publication US20150296790A1, “SILICON-CONTAINING COMPOUND AQUEOUS SOLUTION AND ANTIBACTERIAL/ANTIVIRAL AGENT INCLUDING SAID SOLUTION” (JEX CO., LTD., priority 2012, published 2015).

Experiment: Solubility of Silicon-Containing Compound E in aqueous CD solutions (clarity and stability, visual)
Assay type: physicochemical
Set-up: key to Solubility of Compound E: Stability: OK: When the aqueous solutions of the CD and the Silicon-Containing Compound E did not exhibit the conditions such as presence of precipitates and deposits, the solutions were considered as stable; NG: When the aqueous solutions of the CD and the Silicon-Containing Compound E exhibited the conditions such as presence of precipitates and deposits, the solutions were not considered as stable; key to Solubility of Compound E: Clarity: When the aqueous solutions of the CD and the Silicon-Containing Compound E were clear, the solutions were rated as “OK”; When the aqueous solutions of the CD and the Silicon-Containing Compound E were not clear, the solutions were rated as “NG”
Conditions: purified water
Description: To determine “Solubility of Compound E” in the tables, the Silicon-Containing Compound E as another solute was added at respective ratios shown in the respective tables (see “Ratio of Compound E” in the tables) to the respective aqueous CD solutions after evaluation of the solubility of CD, and then the mixture was stirred on a shaker to prepare the respective aqueous solutions of the CD and the Silicon-Containing Compound E. Immediately after preparation of the aqueous solutions of the CD and the Silicon-Containing Compound E, the clarity of the aqueous solutions was visually evaluated. When the aqueous solutions of the CD and the Silicon-Containing Compound E were clear, the solutions were rated as “OK”. When the aqueous solutions of the CD and the Silicon-Containing Compound E were not clear, the solutions were rated as “NG”. “Stability” in “Solubility of Compound E” in the tables was determined by allowing the respective aqueous solutions of the CD and the Silicon-Containing Compound E after preparation to stand at ambient temperature for a predetermined period and then visually evaluating the conditions (such as presence of precipitates and deposits) of the solutions.

[1] = β-CD 1 w/w %, Compound E 0.3 w/w %
[2] = β-CD 1 w/w %, Compound E 0.4 w/w %
[3] = β-CD 1 w/w %, Compound E 0.5 w/w %
[4] = β-CD 1 w/w %, Compound E 0.6 w/w %
[5] = β-CD 1 w/w %, Compound E 0.7 w/w %
[6] = β-CD 1 w/w %, Compound E 0.8 w/w %
[7] = β-CD 1 w/w %, Compound E 0.9 w/w %
[8] = β-CD 1 w/w %, Compound E 1 w/w %
[9] = γ-CD 1 w/w %, Compound E 0.1 w/w %
[10] = γ-CD 1 w/w %, Compound E 0.2 w/w %
[11] = γ-CD 1 w/w %, Compound E 0.3 w/w %
[12] = γ-CD 1 w/w %, Compound E 0.4 w/w %
[13] = γ-CD 1 w/w %, Compound E 0.5 w/w %
[14] = γ-CD 1 w/w %, Compound E 0.6 w/w %
[15] = γ-CD 1 w/w %, Compound E 0.7 w/w %
[16] = γ-CD 1 w/w %, Compound E 0.8 w/w %
[17] = γ-CD 1 w/w %, Compound E 0.9 w/w %
[18] = γ-CD 1 w/w %, Compound E 1 w/w %
[19] = γ-CD 3 w/w %, Compound E 0.1 w/w %
[20] = γ-CD 3 w/w %, Compound E 0.2 w/w %
[21] = γ-CD 3 w/w %, Compound E 0.3 w/w %
[22] = γ-CD 3 w/w %, Compound E 0.4 w/w %
[23] = γ-CD 3 w/w %, Compound E 0.5 w/w %
[24] = γ-CD 3 w/w %, Compound E 0.6 w/w %
[25] = γ-CD 3 w/w %, Compound E 0.7 w/w %
[26] = γ-CD 3 w/w %, Compound E 0.8 w/w %
[27] = γ-CD 3 w/w %, Compound E 0.9 w/w %
[28] = γ-CD 3 w/w %, Compound E 1 w/w %
[29] = γ-CD 6 w/w %, Compound E 0.1 w/w %
[30] = γ-CD 6 w/w %, Compound E 0.2 w/w %
[31] = γ-CD 6 w/w %, Compound E 0.3 w/w %
[32] = γ-CD 6 w/w %, Compound E 0.4 w/w %
[33] = γ-CD 6 w/w %, Compound E 0.5 w/w %
[34] = γ-CD 6 w/w %, Compound E 0.6 w/w %
[35] = γ-CD 6 w/w %, Compound E 0.7 w/w %
[36] = γ-CD 6 w/w %, Compound E 0.8 w/w %
[37] = γ-CD 6 w/w %, Compound E 0.9 w/w %
[38] = γ-CD 6 w/w %, Compound E 1 w/w %
[39] = γ-CD 10 w/w %, Compound E 0.1 w/w %
[40] = γ-CD 10 w/w %, Compound E 0.2 w/w %
[41] = γ-CD 10 w/w %, Compound E 0.3 w/w %
[42] = γ-CD 10 w/w %, Compound E 0.4 w/w %
[43] = γ-CD 10 w/w %, Compound E 0.5 w/w %
[44] = γ-CD 10 w/w %, Compound E 0.6 w/w %
[45] = γ-CD 10 w/w %, Compound E 0.7 w/w %
[46] = γ-CD 10 w/w %, Compound E 0.8 w/w %
[47] = γ-CD 10 w/w %, Compound E 0.9 w/w %
[48] = γ-CD 10 w/w %, Compound E 1 w/w %

CCCCCCCCCCCCCCCCCC[N+](C)(C)CCC[Si](OCC)(OCC)OCC.[Cl-] [Compound E, Octadecyl dimethyl(3-triethoxysilylpropyl)ammonium chloride]
Solubility of Compound E: Stability (β-CD 1 w/w %, Compound E 0.2 w/w %): OK | Solubility of Compound E: Clarity [1]: NG | Solubility of Compound E: Stability [1]: OK | Solubility of Compound E: Clarity [2]: NG | Solubility of Compound E: Stability [2]: OK | Solubility of Compound E: Clarity [3]: NG | Solubility of Compound E: Stability [3]: OK | Solubility of Compound E: Clarity [4]: NG | Solubility of Compound E: Stability [4]: OK | Solubility of Compound E: Clarity [5]: NG | Solubility of Compound E: Stability [5]: OK | Solubility of Compound E: Clarity [6]: NG | Solubility of Compound E: Stability [6]: OK | Solubility of Compound E: Clarity [7]: NG | Solubility of Compound E: Stability [7]: OK | Solubility of Compound E: Clarity [8]: NG | Solubility of Compound E: Stability [8]: OK | Solubility of Compound E: Clarity [9]: OK | Solubility of Compound E: Stability [9]: OK | Solubility of Compound E: Clarity [10]: OK | Solubility of Compound E: Stability [10]: OK | Solubility of Compound E: Clarity [11]: OK | Solubility of Compound E: Stability [11]: OK | Solubility of Compound E: Clarity [12]: OK | Solubility of Compound E: Stability [12]: OK | Solubility of Compound E: Clarity [13]: NG | Solubility of Compound E: Stability [13]: OK | Solubility of Compound E: Clarity [14]: NG | Solubility of Compound E: Stability [14]: OK | Solubility of Compound E: Clarity [15]: NG | Solubility of Compound E: Stability [15]: OK | Solubility of Compound E: Clarity [16]: NG | Solubility of Compound E: Stability [16]: OK | Solubility of Compound E: Clarity [17]: NG | Solubility of Compound E: Stability [17]: OK | Solubility of Compound E: Clarity [18]: NG | Solubility of Compound E: Stability [18]: OK | Solubility of Compound E: Clarity [19]: NG | Solubility of Compound E: Stability [19]: OK | Solubility of Compound E: Clarity [20]: NG | Solubility of Compound E: Stability [20]: OK | Solubility of Compound E: Clarity [21]: NG | Solubility of Compound E: Stability [21]: OK | Solubility of Compound E: Clarity [22]: NG | Solubility of Compound E: Stability [22]: OK | Solubility of Compound E: Clarity [23]: NG | Solubility of Compound E: Stability [23]: OK | Solubility of Compound E: Clarity [24]: NG | Solubility of Compound E: Stability [24]: OK | Solubility of Compound E: Clarity [25]: NG | Solubility of Compound E: Stability [25]: OK | Solubility of Compound E: Clarity [26]: NG | Solubility of Compound E: Stability [26]: OK | Solubility of Compound E: Clarity [27]: NG | Solubility of Compound E: Stability [27]: OK | Solubility of Compound E: Clarity [28]: NG | Solubility of Compound E: Stability [28]: OK | Solubility of Compound E: Clarity [29]: NG | Solubility of Compound E: Stability [29]: OK | Solubility of Compound E: Clarity [30]: NG | Solubility of Compound E: Stability [30]: OK | Solubility of Compound E: Clarity [31]: NG | Solubility of Compound E: Stability [31]: OK | Solubility of Compound E: Clarity [32]: NG | Solubility of Compound E: Stability [32]: OK | Solubility of Compound E: Clarity [33]: NG | Solubility of Compound E: Stability [33]: OK | Solubility of Compound E: Clarity [34]: NG | Solubility of Compound E: Stability [34]: OK | Solubility of Compound E: Clarity [35]: NG | Solubility of Compound E: Stability [35]: OK | Solubility of Compound E: Clarity [36]: NG | Solubility of Compound E: Stability [36]: OK | Solubility of Compound E: Clarity [37]: NG | Solubility of Compound E: Stability [37]: OK | Solubility of Compound E: Clarity [38]: NG | Solubility of Compound E: Stability [38]: OK | Solubility of Compound E: Clarity [39]: NG | Solubility of Compound E: Stability [39]: NG | Solubility of Compound E: Clarity [40]: NG | Solubility of Compound E: Stability [40]: NG | Solubility of Compound E: Clarity [41]: NG | Solubility of Compound E: Stability [41]: NG | Solubility of Compound E: Clarity [42]: NG | Solubility of Compound E: Stability [42]: NG | Solubility of Compound E: Clarity [43]: NG | Solubility of Compound E: Stability [43]: NG | Solubility of Compound E: Clarity [44]: NG | Solubility of Compound E: Stability [44]: NG | Solubility of Compound E: Clarity [45]: NG | Solubility of Compound E: Stability [45]: NG | Solubility of Compound E: Clarity [46]: NG | Solubility of Compound E: Stability [46]: NG | Solubility of Compound E: Clarity [47]: NG | Solubility of Compound E: Stability [47]: NG | Solubility of Compound E: Clarity [48]: NG | Solubility of Compound E: Stability [48]: NG
